Molecular target: T1, GST-Xa-hAAK1 (Homo sapiens, UniProt Q2M2I8)
T1 construct: made in house
Assay: AAK1 Kinase Assay
Assay type: biochemical
Settings: IC50 (nM), ATP 22 μM; 3 hours at room temperature; Caliper LabChip 3000
Method: The assays were performed in U-bottom 384-well plates. […] The reactions were initiated by the combination of bacterially expressed, GST-Xa-hAAK1 with substrates and test compounds. The reactions were incubated at room temperature for 3 hours and terminated by adding 60 μl of 35 mM EDTA buffer to each sample. The reactions were analyzed on the Caliper LabChip 3000 (Caliper, Hopkinton, Mass.) by electrophoretic separation of the fluorescent substrate and phosphorylated product. […] Compounds were dissolved at 10 mM in dimethylsulfoxide (DMSO) and evaluated at eleven concentrations. IC50 values were derived by non-linear regression analysis.

T1 sequence (Q2M2I8 whole entry): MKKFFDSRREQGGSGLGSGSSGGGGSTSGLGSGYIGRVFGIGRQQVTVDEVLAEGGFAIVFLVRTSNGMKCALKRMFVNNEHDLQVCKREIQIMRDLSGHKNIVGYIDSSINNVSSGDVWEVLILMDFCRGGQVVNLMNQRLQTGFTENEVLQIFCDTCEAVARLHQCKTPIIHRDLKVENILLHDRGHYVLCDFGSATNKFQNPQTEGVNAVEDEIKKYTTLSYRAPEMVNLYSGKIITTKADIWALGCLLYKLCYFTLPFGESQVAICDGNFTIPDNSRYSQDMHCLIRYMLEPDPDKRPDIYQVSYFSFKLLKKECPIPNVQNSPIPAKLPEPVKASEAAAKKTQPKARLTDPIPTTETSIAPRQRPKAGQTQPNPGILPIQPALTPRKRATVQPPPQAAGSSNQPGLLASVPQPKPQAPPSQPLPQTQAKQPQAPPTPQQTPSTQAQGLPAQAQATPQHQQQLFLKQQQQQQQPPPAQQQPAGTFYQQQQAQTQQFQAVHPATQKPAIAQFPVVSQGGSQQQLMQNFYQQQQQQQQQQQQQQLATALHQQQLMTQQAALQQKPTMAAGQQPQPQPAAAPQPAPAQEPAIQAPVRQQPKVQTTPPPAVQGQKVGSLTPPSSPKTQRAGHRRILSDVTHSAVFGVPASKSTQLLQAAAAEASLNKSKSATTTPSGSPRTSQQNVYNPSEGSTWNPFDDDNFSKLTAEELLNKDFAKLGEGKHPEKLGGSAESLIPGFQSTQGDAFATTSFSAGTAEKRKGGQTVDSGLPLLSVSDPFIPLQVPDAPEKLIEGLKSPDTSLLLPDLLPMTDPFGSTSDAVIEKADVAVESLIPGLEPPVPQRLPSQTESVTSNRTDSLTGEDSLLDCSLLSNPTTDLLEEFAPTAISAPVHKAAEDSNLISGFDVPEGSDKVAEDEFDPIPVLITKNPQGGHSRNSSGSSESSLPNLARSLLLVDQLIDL

Question: How did the IC50 turn out when COc1cc(NC(=O)C(N)C2CCCCC2C)ccc1-c1cnco1 (mixture of isomers) [Example 93, 2-Amino-N-(3-methoxy-4-(oxazol-5-yl)phenyl)-2-(2-methylcyclohexyl)acetamide] was run?
Answer: Its IC50 is 20 nM.

Question: CC(C)C1CCCNC1C(=O)Nc1ccc(-c2ccncc2)cc1 (mixture of isomers) [Example 119, 3-Isopropyl-N-(4-(pyridin-4-yl)phenyl)piperidine-2-carboxamide] was tested. Which IC50 did it give?
Answer: Its IC50 is 33 nM.

Question: How did the IC50 turn out when O=C(Nc1ccc(-c2ccncc2)cc1)C1NCCCC1C(F)(F)F (mixture of isomers) [Example 120, N-(4-(Pyridin-4-yl)phenyl)-3-(trifluoromethyl)piperidine-2-carboxamide] was run?
Answer: The IC50 was 220 nM.

Question: With CC1CCCCC1C(N)C(=O)Nc1ccc(-c2ccncc2)cc1 (mixture of isomers) [Example 121, 2-Amino-2-(2-methylcyclohexyl)-N-(4-(pyridin-4-yl)phenyl)acetamide] as the compound, how does the IC50 read?
Answer: Its IC50 is 140 nM.

Question: NC(C(=O)Nc1ccc(-c2ccncc2)cc1)C1CCCCC1C(F)(F)F (mixture of isomers) [Example 122, 2-Amino-N-(4-(pyridin-4-yl)phenyl)-2-(2-(trifluoromethyl)cyclohexyl)acetamide] was tested. Which IC50 did it give?
Answer: The IC50 was 64 nM.

Question: For COc1cc(NC(=O)C2NCCC2C(C)C)ccc1-c1cnco1 (single isomer, unassigned) [Example 36, 3-Isopropyl-N-(3-methoxy-4-(oxazol-5-yl)phenyl)pyrrolidine-2-carboxamide], which IC50 is on record?
Answer: The IC50 was 48 nM.

Question: For COc1cc(NC(=O)C2NCCC2C(C)C)ccc1-c1cnco1 (single isomer, unassigned) [Example 37, 3-Isopropyl-N-(3-methoxy-4-(oxazol-5-yl)phenyl)pyrrolidine-2-carboxamide], which IC50 is on record?
Answer: The IC50 was 8 nM.

Question: Which IC50 does the source give for COc1cc(NC(=O)C2NCCC2C(C)C)ccc1-c1cnco1 (single isomer, unassigned) [Example 38, 3-Isopropyl-N-(3-methoxy-4-(oxazol-5-yl)phenyl)pyrrolidine-2-carboxamide] here?
Answer: The IC50 was 110 nM.

Question: For COc1cc(NC(=O)C2NCCC2C(C)C)ccc1-c1cnco1 (single isomer, unassigned) [Example 39, 3-Isopropyl-N-(3-methoxy-4-(oxazol-5-yl)phenyl)pyrrolidine-2-carboxamide], which IC50 is on record?
Answer: Its IC50 is 29 nM.

Question: Which IC50 does the source give for COc1cc(NC(=O)C2NCCCC2C(C)C)ccc1-c1cnco1 (single isomer, unassigned) [Example 87, 3-Isopropyl-N-(3-methoxy-4-(oxazol-5-yl)phenyl)piperidine-2-carboxamide] here?
Answer: The IC50 was 280 nM.

Question: For COc1cc(NC(=O)C2NCCCC2C(F)(F)F)ccc1-c1cnco1 (single isomer, unassigned) [Example 91, N-(3-Methoxy-4-(oxazol-5-yl)phenyl)-3-(trifluoromethyl)piperidine-2-carboxamide], which IC50 is on record?
Answer: The IC50 was 417 nM.

Question: With COc1cc(NC(=O)C2NCCCC2C(F)(F)F)ccc1-c1cnco1 (single isomer, unassigned) [Example 92, N-(3-Methoxy-4-(oxazol-5-yl)phenyl)-3-(trifluoromethyl)piperidine-2-carboxamide] as the compound, how does the IC50 read?
Answer: Its IC50 is 74 nM.

Question: COc1cc(NC(=O)[C@H](N)CC2CCC2)c(F)cc1-c1cnco1 (stereo in doubt) [Example 94, 2-Amino-3-cyclobutyl-N-(2-fluoro-5-methoxy-4-(oxazol-5-yl)phenyl)propanamide] was tested. Which IC50 did it give?
Answer: The IC50 was 750 nM.

Question: How did the IC50 turn out when COc1cc(NC(=O)[C@H](N)CC2CC2)c(F)cc1-c1cnco1 (stereo in doubt) [Example 95, 2-Amino-3-cyclopropyl-N-(2-fluoro-5-methoxy-4-(oxazol-5-yl)phenyl)propanamide] was run?
Answer: Its IC50 is 420 nM.

Question: COc1cc(NC(=O)[C@H](N)CC(C)(C)C)c(F)cc1-c1cnco1 (stereo in doubt) [Example 97, 2-Amino-N-(2-fluoro-5-methoxy-4-(oxazol-5-yl)phenyl)-4,4-dimethylpentanamide] was tested. Which IC50 did it give?
Answer: The IC50 was 630 nM.

Question: For COc1cc(NC(=O)[C@H]2CCCN2)ccc1-c1cnco1 [Example 2, (R)—N-(3-Methoxy-4-(oxazol-5-yl)phenyl)pyrrolidine-2-carboxamide], which IC50 is on record?
Answer: Its IC50 is 346 nM.

Question: How did the IC50 turn out when COc1cc(NC(=O)[C@H](N)C2CCCC2)ccc1-c1cnco1 [Example 3, (R)-2-Amino-2-cyclopentyl-N-(3-methoxy-4-(oxazol-5-yl)phenyl)acetamide] was run?
Answer: The IC50 was 53 nM.

Question: With COc1cc(NC(=O)[C@@H](N)CC(C)C)ccc1-c1cnco1 [Example 5, (S)-2-Amino-N-(3-methoxy-4-(oxazol-5-yl)phenyl)-4-methylpentanamide] as the compound, how does the IC50 read?
Answer: The IC50 was 104 nM.

Question: With COc1cc(NC(=O)[C@H](N)CC2CCC2)ccc1-c1cnco1 [Example 6, (R)-2-Amino-3-cyclobutyl-N-(3-methoxy-4-(oxazol-5-yl)phenyl)propanamide] as the compound, how does the IC50 read?
Answer: The IC50 was 78 nM.

Question: For COc1cc(NC(=O)C(N)CC(C)C)ccc1-c1cnco1 (stereo not drawn) [Example 7, 2-Amino-N-(3-methoxy-4-(oxazol-5-yl)phenyl)-4-methylpentanamide], which IC50 is on record?
Answer: Its IC50 is 64 nM.

Question: Which IC50 does the source give for COc1cc(NC(=O)C(N)CCC(C)C)ccc1-c1cnco1 (stereo not drawn) [Example 8, 2-Amino-N-(3-methoxy-4-(oxazol-5-yl)phenyl)-5-methylhexanamide] here?
Answer: Its IC50 is 90 nM.

Question: With COc1cc(NC(=O)[C@H](N)CC2CC2)ccc1-c1cnco1 [Example 9, (R)-2-Amino-3-cyclopropyl-N-(3-methoxy-4-(oxazol-5-yl)phenyl)propanamide] as the compound, how does the IC50 read?
Answer: The IC50 was 115 nM.

Question: Which IC50 does the source give for CCN(C(=O)[C@H](N)CC(C)C)c1ccc(-c2cnco2)c(OC)c1 [Example 10, (R)-2-Amino-N-ethyl-N-(3-methoxy-4-(oxazol-5-yl)phenyl)-4-methylpentanamide] here?
Answer: The IC50 was 5010 nM.

Question: Which IC50 does the source give for CC(C)C[C@@H](N)C(=O)Nc1ccc(-c2cnco2)c(C(F)(F)F)c1 [Example 11, (R)-2-Amino-4-methyl-N-(4-(oxazol-5-yl)-3-(trifluoromethyl)phenyl)pentanamide] here?
Answer: Its IC50 is 1520 nM.

Question: With CC(C)C[C@@H](N)C(=O)Nc1ccc(-c2cnco2)c(Br)c1 [Example 12, (R)-2-Amino-N-(3-bromo-4-(oxazol-5-yl)phenyl)-4-methylpentanamide] as the compound, how does the IC50 read?
Answer: Its IC50 is 55 nM.

Question: How did the IC50 turn out when Cc1cc(NC(=O)[C@H](N)CC(C)C)ccc1-c1cnco1 [Example 13, (R)-2-Amino-4-methyl-N-(3-methyl-4-(oxazol-5-yl)phenyl)pentanamide] was run?
Answer: Its IC50 is 248 nM.

Question: With CCc1cc(NC(=O)[C@H](N)CC(C)C)ccc1-c1cnco1 [Example 14, (R)-2-Amino-N-(3-ethyl-4-(oxazol-5-yl)phenyl)-4-methylpentanamide] as the compound, how does the IC50 read?
Answer: Its IC50 is 97 nM.

Question: With CC(C)C[C@@H](N)C(=O)Nc1ccc(-c2cnco2)c(-c2ccsc2)c1 [Example 15, (R)-2-Amino-4-methyl-N-(4-(oxazol-5-yl)-3-(thiophen-3-yl)phenyl)pentanamide] as the compound, how does the IC50 read?
Answer: Its IC50 is 1370 nM.

Question: Which IC50 does the source give for CC(C)C[C@@H](N)C(=O)Nc1ccc(-c2cnco2)c(O)c1 [Example 16, (R)-2-Amino-N-(3-hydroxy-4-(oxazol-5-yl)phenyl)-4-methylpentanamide] here?
Answer: The IC50 was 100 nM.

Question: Which IC50 does the source give for CCOc1cc(NC(=O)[C@H](N)CC(C)C)ccc1-c1cnco1 [Example 17, (R)-2-Amino-N-(3-ethoxy-4-(oxazol-5-yl)phenyl)-4-methylpentanamide] here?
Answer: The IC50 was 66 nM.

Question: With COc1cc(NC(=O)[C@H](N)CC(C)C)ccc1-c1cn[nH]n1 [Example 19, (R)-2-Amino-N-(3-methoxy-4-(2H-1,2,3-triazol-4-yl)phenyl)-4-methylpentanamide] as the compound, how does the IC50 read?
Answer: Its IC50 is 56 nM.

Question: With COc1cc(NC(=O)[C@H](N)CC(C)C)ccc1-c1ccncc1 [Example 20, (R)-2-Amino-N-(3-methoxy-4-(pyridin-4-yl)phenyl)-4-methylpentanamide] as the compound, how does the IC50 read?
Answer: Its IC50 is 63 nM.

Question: Which IC50 does the source give for COc1cc(NC(=O)[C@H](N)CC(C)C)ccc1-c1cncs1 [Example 21, (R)-2-Amino-N-(3-methoxy-4-(thiazol-5-yl)phenyl)-4-methylpentanamide] here?
Answer: The IC50 was 275 nM.

Question: For COc1cc(NC(=O)[C@H](N)CC(C)C)ccc1-c1ccnnc1 [Example 22, (R)-2-Amino-N-(3-methoxy-4-(pyridazin-4-yl)phenyl)-4-methylpentanamide], which IC50 is on record?
Answer: Its IC50 is 140 nM.

Question: COc1cc(NC(=O)[C@H](N)CC(C)C)ccc1-c1nncs1 [Example 23, (R)-2-Amino-N-(3-methoxy-4-(1,3,4-thiadiazol-2-yl)phenyl)-4-methylpentanamide] was tested. Which IC50 did it give?
Answer: The IC50 was 5100 nM.

Question: COc1cc(NC(=O)[C@H](N)CC(C)C)ccc1-c1cn[nH]c1 [Example 24, (R)-2-Amino-N-(3-methoxy-4-(1H-pyrazol-4-yl)phenyl)-4-methylpentanamide] was tested. Which IC50 did it give?
Answer: The IC50 was 19 nM.

Question: For COc1cc(NC(=O)[C@H](N)CC(C)C)ccc1-n1ccnc1 [Example 25, (R)—N-(4-(1H-Imidazol-1-yl)-3-methoxyphenyl)-2-amino-4-methylpentanamide], which IC50 is on record?
Answer: Its IC50 is 3250 nM.

Question: How did the IC50 turn out when COc1cc(NC(=O)[C@H](N)CC(C)C)ccc1-n1cncn1 [Example 26, (R)-2-Amino-N-(3-methoxy-4-(1H-1,2,4-triazol-1-yl)phenyl)-4-methylpentanamide] was run?
Answer: Its IC50 is 955 nM.

Question: For COc1cc(NC(=O)[C@H](N)CC(C)C)c(Cl)cc1-c1cnco1 [Example 27, (R)-2-Amino-N-(2-chloro-5-methoxy-4-(oxazol-5-yl)phenyl)-4-methylpentanamide], which IC50 is on record?
Answer: Its IC50 is 54 nM.

Question: With COc1c(-c2cnco2)ccc(NC(=O)[C@H](N)CC(C)C)c1Cl [Example 28, (R)-2-Amino-N-(2-chloro-3-methoxy-4-(oxazol-5-yl)phenyl)-4-methylpentanamide] as the compound, how does the IC50 read?
Answer: Its IC50 is 709 nM.

Question: With COc1c(-c2cnco2)cc(Cl)c(NC(=O)[C@H](N)CC(C)C)c1Cl [Example 29, (R)-2-Amino-N-(2,6-dichloro-3-methoxy-4-(oxazol-5-yl)phenyl)-4-methylpentanamide] as the compound, how does the IC50 read?
Answer: Its IC50 is 344 nM.

Question: For COc1cc(NC(=O)C(CC(C)C)N2CCC(N)C2)ccc1-c1cnco1 (stereo not drawn) [Example 30, 2-(3-Aminopyrrolidin-1-yl)-N-(3-methoxy-4-(oxazol-5-yl)phenyl)-4-methylpentanamide], which IC50 is on record?
Answer: Its IC50 is 590 nM.
